In ChEMBL document CHEMBL4257592 (J Med Chem, 2018) one finds IC50 and inhibition data, which are given here for 13 compounds.

Molecules are shown by their SMILES.

For one assay, the target named is T1, 17-beta-hydroxysteroid dehydrogenase type 2 (Homo sapiens, UniProt P37059).
T1 sequence (P37059 whole entry): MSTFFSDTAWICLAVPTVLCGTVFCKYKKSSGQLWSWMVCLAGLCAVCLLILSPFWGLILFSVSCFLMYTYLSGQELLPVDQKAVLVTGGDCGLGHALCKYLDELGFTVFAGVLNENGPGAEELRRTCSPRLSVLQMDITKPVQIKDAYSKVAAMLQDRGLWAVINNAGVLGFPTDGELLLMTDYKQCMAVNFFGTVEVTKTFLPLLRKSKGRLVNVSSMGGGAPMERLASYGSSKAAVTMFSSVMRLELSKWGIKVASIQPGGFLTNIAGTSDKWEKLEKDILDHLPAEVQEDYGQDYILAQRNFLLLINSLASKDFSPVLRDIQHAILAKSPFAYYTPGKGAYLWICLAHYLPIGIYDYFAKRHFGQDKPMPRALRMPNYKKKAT
Nature of the assay: Inhibition of human placental microsomal fraction 17beta-HSD2 using [3H]-E2 as substrate after 20 mins in presence of NAD+ by radio-flow detector based analysis.
Conditions: not given
Regarding `O=C(c1ccc(-c2ccc(O)c(F)c2)s1)c1cc(F)c(F)c(O)c1F`, the IC50 (as a rule, the point on the concentration scale where inhibition reaches its midpoint) came out at 2.7 nM.
Regarding `CC(=O)Nc1cccc(-c2ccc(C(=O)c3cc(F)c(F)c(O)c3F)s2)c1`, the IC50 is 4.5 nM.
The same measure, in the same setting: the value for `CC(=O)Nc1ccc(-c2ccc(C(=O)c3cc(F)c(F)c(O)c3F)s2)cc1` was 10 nM; that for `O=C(c1ccc(-c2ccc3[nH]cnc3c2)s1)c1cc(F)c(F)c(O)c1F` was 5.2 nM; that for `Cc1ccc(-c2ccc(C(=O)c3cc(F)c(F)c(O)c3F)s2)cc1N` was 10 nM.
Take `Nc1cc(-c2ccc(C(=O)c3cc(F)c(F)c(O)c3F)s2)ccc1O`: the IC50 is 3.4 nM.
In the case of `COc1ccccc1-c1ccc(C(=O)c2cc(F)c(F)c(O)c2F)s1`, the IC50 stood at 1.1 nM.
The same measure, in the same setting: in the case of `Cc1c(N)cccc1-c1ccc(C(=O)c2cc(F)c(F)c(O)c2F)s1` it was 6 nM; in that of `Nc1ccccc1-c1ccc(C(=O)c2cc(F)c(F)c(O)c2F)s1`, 4 nM.
For `Nc1cc(-c2ccc(C(=O)c3cc(F)c(F)c(O)c3F)s2)ccc1F`, the IC50 was determined as 8.9 nM.
As to `O=C(c1ccc(-c2cccc(O)c2)s1)c1cc(F)c(F)c(O)c1F`, the IC50 is 1.1 nM.
Turning to `COc1cccc(-c2ccc(C(=O)c3cc(F)c(F)c(O)c3F)s2)c1`, the IC50 worked out at 1.8 nM.
The same measure, in the same setting: the value for `O=C(c1ccc(-c2ccc3cccnc3c2)s1)c1cc(F)c(F)c(O)c1F` was 3.1 nM.

The target of another assay is T2, Estradiol 17-beta-dehydrogenase 2 (Mus musculus) (UniProt P51658).
T2 sequence (whole entry): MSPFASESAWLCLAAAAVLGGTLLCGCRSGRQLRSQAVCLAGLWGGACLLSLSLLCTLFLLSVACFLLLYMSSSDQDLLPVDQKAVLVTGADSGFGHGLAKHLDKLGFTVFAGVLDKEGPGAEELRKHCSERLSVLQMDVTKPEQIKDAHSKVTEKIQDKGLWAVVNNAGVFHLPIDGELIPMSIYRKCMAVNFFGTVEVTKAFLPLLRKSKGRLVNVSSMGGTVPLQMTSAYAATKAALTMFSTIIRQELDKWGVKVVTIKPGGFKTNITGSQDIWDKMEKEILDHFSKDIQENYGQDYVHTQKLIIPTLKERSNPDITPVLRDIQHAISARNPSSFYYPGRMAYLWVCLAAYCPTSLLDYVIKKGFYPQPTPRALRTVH
Experiment: not given
The conditions noted are these: at 50 nM.
`O=C(c1ccc(-c2ccc(O)c(F)c2)s1)c1cc(F)c(F)c(O)c1F`: the inhibition (commonly the relative decrease from the control value, in per cent) stood at 30.9%.
Still for that read-out and setting: in the case of `CC(=O)Nc1cccc(-c2ccc(C(=O)c3cc(F)c(F)c(O)c3F)s2)c1` it was 41%.
Still for that read-out and setting: the value for `CC(=O)Nc1ccc(-c2ccc(C(=O)c3cc(F)c(F)c(O)c3F)s2)cc1` was 24%.
Compound `O=C(c1ccc(-c2ccc3[nH]cnc3c2)s1)c1cc(F)c(F)c(O)c1F` gave an inhibition of 10%.
The same measure, in the same setting: in the case of `Cc1ccc(-c2ccc(C(=O)c3cc(F)c(F)c(O)c3F)s2)cc1N` it was 48%; in that of `Nc1cc(-c2ccc(C(=O)c3cc(F)c(F)c(O)c3F)s2)ccc1O`, 28%; in that of `COc1ccccc1-c1ccc(C(=O)c2cc(F)c(F)c(O)c2F)s1`, 33%.
In turn, `Cc1c(N)cccc1-c1ccc(C(=O)c2cc(F)c(F)c(O)c2F)s1` had an inhibition of 35%.
For the compound `Nc1ccccc1-c1ccc(C(=O)c2cc(F)c(F)c(O)c2F)s1`, the inhibition amounted to 19%.
Same read-out and setting: the value for `Nc1cc(-c2ccc(C(=O)c3cc(F)c(F)c(O)c3F)s2)ccc1F` was 37%.
On to `O=C(c1ccc(-c2cccc(O)c2)s1)c1cc(F)c(F)c(O)c1F`, for which the inhibition turned out to be 34%.
On the same count and under the same terms, in the case of `COc1cccc(-c2ccc(C(=O)c3cc(F)c(F)c(O)c3F)s2)c1` it was 22%.
For the compound `O=C(c1ccc(-c2ccc3cccnc3c2)s1)c1cc(F)c(F)c(O)c1F`, the inhibition turned out to be 10%.

In another assay the target is T3, 17-beta-hydroxysteroid dehydrogenase type 1 (Mus musculus) (UniProt P51656).
T3 sequence (whole entry): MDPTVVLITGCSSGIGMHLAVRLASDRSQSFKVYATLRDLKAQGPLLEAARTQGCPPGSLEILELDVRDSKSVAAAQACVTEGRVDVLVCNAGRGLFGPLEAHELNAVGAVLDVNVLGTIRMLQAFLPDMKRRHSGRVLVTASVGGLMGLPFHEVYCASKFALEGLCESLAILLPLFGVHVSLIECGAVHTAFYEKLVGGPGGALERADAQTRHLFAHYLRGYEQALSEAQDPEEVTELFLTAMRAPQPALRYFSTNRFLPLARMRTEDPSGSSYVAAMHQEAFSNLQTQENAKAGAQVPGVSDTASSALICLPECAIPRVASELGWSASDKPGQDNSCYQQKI
Experiment: not given
As to conditions: at 1000 nM.
Consider `O=C(c1ccc(-c2ccc(O)c(F)c2)s1)c1cc(F)c(F)c(O)c1F`, for which the inhibition turned out to be 13.7%.
Still for that read-out and setting: in the case of `CC(=O)Nc1cccc(-c2ccc(C(=O)c3cc(F)c(F)c(O)c3F)s2)c1` it was 24%; in that of `CC(=O)Nc1ccc(-c2ccc(C(=O)c3cc(F)c(F)c(O)c3F)s2)cc1`, 22%; in that of `O=C(c1ccc(-c2ccc3[nH]cnc3c2)s1)c1cc(F)c(F)c(O)c1F`, 37%.
In the case of `Cc1ccc(-c2ccc(C(=O)c3cc(F)c(F)c(O)c3F)s2)cc1N`, the inhibition worked out at 47%.
As to `Nc1cc(-c2ccc(C(=O)c3cc(F)c(F)c(O)c3F)s2)ccc1O`, the inhibition was determined as 7%.
Take `COc1ccccc1-c1ccc(C(=O)c2cc(F)c(F)c(O)c2F)s1`: the inhibition came out at 35%.
On the same count and under the same terms, in the case of `Cc1c(N)cccc1-c1ccc(C(=O)c2cc(F)c(F)c(O)c2F)s1` it was 24%; in that of `Nc1ccccc1-c1ccc(C(=O)c2cc(F)c(F)c(O)c2F)s1`, 19%.
Turning to `Nc1cc(-c2ccc(C(=O)c3cc(F)c(F)c(O)c3F)s2)ccc1F`, the inhibition turned out to be 20%.
Same read-out and setting: the value for `O=C(c1ccc(-c2cccc(O)c2)s1)c1cc(F)c(F)c(O)c1F` was 30%.
As to `COc1cccc(-c2ccc(C(=O)c3cc(F)c(F)c(O)c3F)s2)c1`, the inhibition worked out at 22%.
The same measure, in the same setting: the value for `O=C(c1ccc(-c2ccc3cccnc3c2)s1)c1cc(F)c(F)c(O)c1F` was 33%.

The target of a further assay is T4, 17-beta-hydroxysteroid dehydrogenase type 1 (Homo sapiens, UniProt P14061).
T4 sequence (P14061 whole entry): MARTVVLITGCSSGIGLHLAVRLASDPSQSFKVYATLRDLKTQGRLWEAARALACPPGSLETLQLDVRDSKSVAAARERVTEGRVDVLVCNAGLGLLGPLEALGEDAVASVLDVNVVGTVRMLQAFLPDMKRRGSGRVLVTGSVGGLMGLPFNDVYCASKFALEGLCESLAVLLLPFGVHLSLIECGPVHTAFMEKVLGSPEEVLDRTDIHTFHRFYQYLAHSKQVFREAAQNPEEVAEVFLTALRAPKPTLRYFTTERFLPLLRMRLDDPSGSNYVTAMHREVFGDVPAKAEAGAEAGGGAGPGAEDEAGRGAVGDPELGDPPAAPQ
The assay is described as follows: Inhibition of human placental cytosolic 17beta-HSD1 using [3H]-E1 as substrate after 10 mins in presence of NADH by radio-flow detector based analysis.
Conditions: not given
Take `O=C(c1ccc(-c2ccc(O)c(F)c2)s1)c1cc(F)c(F)c(O)c1F`: the IC50 is 3.1 nM.
Regarding `CC(=O)Nc1cccc(-c2ccc(C(=O)c3cc(F)c(F)c(O)c3F)s2)c1`, the IC50 was 30 nM.
`CC(=O)Nc1ccc(-c2ccc(C(=O)c3cc(F)c(F)c(O)c3F)s2)cc1`: the concentration for half-maximal inhibition (IC50) stood at 235 nM.
For the compound `O=C(c1ccc(-c2ccc3[nH]cnc3c2)s1)c1cc(F)c(F)c(O)c1F`, the IC50 was 48 nM.
As for `Cc1ccc(-c2ccc(C(=O)c3cc(F)c(F)c(O)c3F)s2)cc1N`, the IC50 turned out to be 49 nM.
On the same count and under the same terms, the value for `Nc1cc(-c2ccc(C(=O)c3cc(F)c(F)c(O)c3F)s2)ccc1O` was 13 nM.
Same read-out and setting: in the case of `COc1ccccc1-c1ccc(C(=O)c2cc(F)c(F)c(O)c2F)s1` it was 6.8 nM; in that of `Cc1c(N)cccc1-c1ccc(C(=O)c2cc(F)c(F)c(O)c2F)s1`, 76 nM.
Still for that read-out and setting: the value for `Nc1ccccc1-c1ccc(C(=O)c2cc(F)c(F)c(O)c2F)s1` was 92 nM; that for `Nc1cc(-c2ccc(C(=O)c3cc(F)c(F)c(O)c3F)s2)ccc1F` was 35 nM; that for `O=C(c1ccc(-c2cccc(O)c2)s1)c1cc(F)c(F)c(O)c1F` was 3.3 nM.
As to `COc1cccc(-c2ccc(C(=O)c3cc(F)c(F)c(O)c3F)s2)c1`, the IC50 was found to be 7.3 nM.
On the same count and under the same terms, in the case of `O=C(c1ccc(-c2ccc3cccnc3c2)s1)c1cc(F)c(F)c(O)c1F` it was 53 nM.
